Source: patent publication US12522597B2, “Methods and compositions for modulating splicing” (Skyhawk Therapeutics, Inc., priority 2019, dated 2026)
Where two headings read alike, the source gives them in different places.

Assays:
[1] = tested on: mHTT protein; test: mHTT protein assay (2B7-MW1, Mesoscale Discovery); type: cell-based, human; settings: GM04724 (CAG 70/20) Huntington's disease patient lymphoblast cells, 48 hours, 2B7-MW1 MSD; read-out: HTT Potency - Protein EC50 mHTT (average)
How it was run: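 mHTT levels were read with the 2B7-MW1 antibody pair (N17 and polyQ epitopes) on MSD after 48 h dosing, 10 μM–0.6 nM. Cells were GM04724 HD lymphoblasts (CAG 70/20). A replica plate was read by CTG for cell viability.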

[2] = tested on: MDR1-MDCK cell monolayers; test: MDCK-MDR1 permeability assay (BBB penetration potential); type: in vitro ADME; settings: dog, MDCK-MDR1, 120 min, 5 μM, pH 7.4
Experimental: (§1) Each determination is performed in duplicate. […] Analytical conditions are outlined below.

[3] = tested on: MDR1; test: as above; type: in vitro ADME; settings: dog; for efflux ratio at 120 min, 5 μM: MDCK-MDR1, pH 7.4, MDCK-MDR1: Efflux; for Papp A→B at 120 min, 5 μM: MDCK-MDR1, pH 7.4, MDCK-MDR1: Papp A-B; for Papp B→A at 120 min, 5 μM: MDCK-MDR1, pH 7.4, MDCK-MDR1: Papp B-A
Experimental: as §1

[4] = tested on: Huntingtin (HTT) transcripts; test: Quantitative splicing assay (HTT), qPCR; type: cell-based; settings: Homo sapiens, GM04724 (CAG 70/20) Huntington's disease patient lymphoblasts, 24 h
Experimental: GM04724 (CAG 70/20) Huntington's disease patient lymphoblasts (Coriell) are plated in 96-wel v-bottom plates at 50,000 cells/well. Immediately after plating, cells are dosed with compound for 24 h at concentrations ranging from 2.5 uM to 0.15 nM (0.1% DMSO). Treated cells are lysed and cDNA synthesized using the Fast Advanced Cells-to-Ct kit (Thermofisher A35378) according to the manufacturer's instructions. 2 uL of each cDNA are used in qPCR reactions to confirm the compound-induced inclusion of a cryptic exon within intron 49 of the Huntingtin (HTT) transcripts. The qPCR reactions are prepared in 384-well plates in 10 uL volume, using TaqMan™ Fast Advanced Master Mix [ThermoFisher; 4444965] with primers and probes shown in the table below. Reactions are run in a Quant Studio 6 qPCR instrument with default settings.

[5] = qPCR HTTex49_50, read-out: HTT Potency - Splicing: E49-50 EC50 (average)
[6] = qPCR cryptic exon 49b inclusion, read-out: HTT Potency - Splicing: E49b EC50 (average)

SMILES	EC50 [1] [nM]	MDCK-MDR1: % Recov A-B [2] [%]	MDCK-MDR1: % Recov B-A [2] [%]	efflux ratio at 120 min, 5 μM [3]	Papp A→B at 120 min, 5 μM [3] [nm/s]	Papp B→A at 120 min, 5 μM [3] [nm/s]	EC50 [4, 5] [nM]	EC50 [4, 6] [nM]
Cc1cc(-c2ccc(-c3ccc(O[C@@H]4C[C@H]5CCC[C@H](N5)[C@@H]4F)nn3)c(O)c2)ccn1 (single isomer, unassigned) [88-ENT1]	16 to 50	51	64	3	70.3	221	16 to 50	16 to 50
Cc1nc(-c2ccc(-c3ccc(O[C@H]4C[C@@H]5CCC[C@@H](N5)[C@H]4F)nn3)c(O)c2)cs1 (single isomer, unassigned) [71-ENT1]	16 to 50	47	60	4	49.6	186	16 to 50	16 to 50
Cn1cnc(-c2ccc(-c3ccc(O[C@@H]4C[C@@]5(C)CCC[C@](C)(N5)[C@@H]4F)nn3)c(O)c2)cc1=O (single isomer, unassigned) [139-ENT1]	0.01 to 15	75	75	14	23.6	321	16 to 50	16 to 50
Cn1cc(-c2ccc(-c3ccc(O[C@@H]4C[C@H]5CC[C@H](N5)[C@@H]4F)nn3)c(O)c2)cn1 (single isomer, unassigned) [60-ENT1]	16 to 50	68	84	4	74.6	305	51 to 100	16 to 50
Cn1cc(-c2ccc(-c3ccc(O[C@H]4C[C@@H]5CCC[C@@H](N5)[C@H]4F)nn3)c(O)c2)cn1 (single isomer, unassigned) [1-ENT2]	0.01 to 15	76	83	6	60.5	337	16 to 50	16 to 50
Oc1cc(-c2cn[nH]c2)ccc1-c1ccc(O[C@@H]2C[C@H]3CC[C@H](N3)[C@@H]2F)nn1 (single isomer, unassigned) [42-ENT2]	0.01 to 15	85	86	12	32	385	0.01 to 15	0.01 to 15
Cn1cc(-c2cc(O)c(-c3ccc(O[C@@H]4C[C@H]5CC[C@H](N5)[C@@H]4F)nn3)cc2F)cn1 (single isomer, unassigned) [61-ENT1]	16 to 50	43	79	3	48.3	138	16 to 50	0.01 to 15
Cn1cc(-c2ccc(-c3ccc(O[C@@H]4C[C@H]5CCC[C@H](N5)[C@H]4F)nn3)c(O)c2)cn1 (single isomer, unassigned) [49-ENT1]	51 to 100	49	82	2	53.6	118	51 to 100	51 to 100
Oc1cc(-n2ccc(F)n2)ccc1-c1ccc(O[C@@H]2C[C@H]3CCC[C@H](N3)[C@@H]2F)nn1 (single isomer, unassigned) [115-ENT1]	16 to 50	44	70	3	71.5	203	0.01 to 15	0.01 to 15
C[C@]12CCC[C@](C)(N1)[C@H](F)[C@H](Oc1ccc(-c3ccc(-c4cn[nH]c4)cc3O)nn1)C2 (single isomer, unassigned) [147-ENT2]	0.01 to 15	71	80	13	44.6	581	0.01 to 15	0.01 to 15
Oc1cc(-n2ccc(F)n2)ccc1-c1ccc(O[C@H]2C[C@@H]3CCC[C@@H](N3)[C@H]2F)nn1 (single isomer, unassigned) [115-ENT2]	0.01 to 15	43	67	2	69	120	16 to 50	16 to 50
